Assay [1] deals with human lymphoma cells U937. Kind of assay: MTT growth inhibition, U937 cells. It is filed as cell-based. To be noted: read-out: Drug concentration (IC50) at which 50% cancer cells survived. How it is done: (§1) The procedure was as follows:
(§2) (3) The 96-well plate was taken out at 48 h and 72 h after dosing, the original culture medium was carefully removed by suction, 100 μl of serum-free DMEM culture medium and 10 μl of MTT (5 mg/mL) solution were added in each well. The plate was continuously cultured for another 4 h and then the culture was terminated;
(§3) (4) The supernatant in the wells was carefully removed by suction, each well was added with 150 μl of DMSO and shaked at room temperature for 10-15 min to fully dissolve crystals.
(§4) (5) Colorimetric analysis: the wavelength was selected as 570 nm, the light absorbance (A value) of each well was determined on the microplate reader and the results were recorded; the experiment was repeated for three times;
(§5) (6) the experimental results were calculated according to the following formula: relative survival rate=(A value of each experimental group/A value of cell control group)×100%
(§6) IC50 of the detected component was calculated by using a regression equation.

Assay [2] has as its system human colon cancer cells HT29. Kind of assay: MTT growth inhibition, HT29 cells. It is filed as cell-based. Conditions: HT-29, 72 h after treatment, read-out: Drug concentration (IC50) at which 50% cancer cells survived.
Description: (§7) Cell lines and cell culture: human lung cancer cells A549 and H460, human breast cancer cells MCF-7 and MDA-MB-231, human gastric cancer cells BGC-823, human prostate cancer cells PC-3, human chronic leukemia cells K562, human lymphoma cells U937, human liver cancer cells SMMC7721 and HepG2, human colon cancer cells HT29, human pancreatic cancer cells PANC-1 and BxPC3, human cervical cancer Hela cell lines, human brain tumor cells Daoy, human neuroma cells D54 and human oral epidermoid cancer cells KBV200 line with strong drug resistance, mouse melanoma cells B16, and highly metastatic Lewis lung cancer cell lines were purchased from American Type Culture Collection of the U.S. These cells were cultured with DMEM and RPMI-1640 culture solutions separately.
as §1
(§8) (1) 0.25% trypsin was used to digest cancer cells in a logarithmic growth phase to prepare a single-cell suspension, the concentration of cells was adjusted to 5×10^4/mL, and the adjusted suspension was inoculated into a 96-well culture plate with 100 μl per well;
(§9) (2) The culture plate was transferred into a 37° C. incubator with a saturated humidity and 5% of CO2 and cultured for 24 h; the compounds and the intermediates thereof obtained in embodiments 1-7 and the compound as represented by formula (IIIa) or the positive control anti-cancer drug with the concentration of 1-1000 μM/L were added to enable the final concentration to be 0.1-1500 μM/L. Control wells (only added with 200 μl of cell suspension) and drug-free blank control wells (containing the solvent of 0.01% DMSO) were set, each group included 8 wells, and the plate was placed into the 37° C. incubator with saturated humidity and 5% of CO2 for culturing;
as §2, §3, §4, §5
(§10) Calculation of median-effect concentration (IC50, namely the drug concentration at which the inhibition rate is 50%, also known as half inhibitory concentration):
as §6

For assay [3], the system named is human cervical cancer Hela cell lines. Put plainly: MTT growth inhibition, Hela cells. It is filed as cell-based. To be noted: 72 h after treatment, read-out: Drug concentration (IC50) at which 50% cancer cells survived.
Description: as §7, §1, §8, §9, §2, §3, §4, §5, §10, §6

Assay [4] concerns highly metastatic Lewis lung cancer cell lines. Kind of assay: MTT growth inhibition, LLC cells. It is filed as cell-based, mouse. To be noted: 72 h after treatment, read-out: Drug concentration (IC50) at which 50% cancer cells survived.
Description: as §7, §1, §8, §9, §2, §3, §4, §5, §10, §6

Assay [5] relates to human breast cancer cells MDA-MB-231. Put plainly: MTT growth inhibition, MDA-MB-231 cells. It is filed as cell-based. Conditions: 72 h after treatment, read-out: Drug concentration (IC50) at which 50% cancer cells survived.
Description: as §7, §1, §8, §9, §2, §3, §4, §5, §10, §6

The subject of assay [6] is human breast cancer cells MCF-7. Kind of assay: MTT growth inhibition, MCF-7 cells. It is filed as cell-based. Conditions: MCF7, 72 h after treatment, read-out: Drug concentration (IC50) at which 50% cancer cells survived.
Description: as §7, §1, §8, §9, §2, §3, §4, §5, §10, §6

In a further assay the test system is mouse melanoma cells B16. Put plainly: MTT growth inhibition, B16 cells. It is filed as cell-based. Conditions: 72 h after treatment, read-out: Drug concentration (IC50) at which 50% cancer cells survived.
Description: as §7, §1, §8, §9, §2, §3, §4, §5, §10, §6

Assay [7] has as its system human prostate cancer cells PC-3. Put plainly: MTT growth inhibition, PC-3 cells. To be noted: 72 h after treatment, read-out: Drug concentration (IC50) at which 50% cancer cells survived. It is filed as cell-based.
Description: as §7, §1, §8, §9, §2, §3, §4, §5, §10, §6

The subject of assay [8] is human lung cancer cells H460. Put plainly: MTT growth inhibition, H460 cells. Format: cell-based. Conditions: NCI-H460, 72 h after treatment, read-out: Drug concentration (IC50) at which 50% cancer cells survived.
Description: as §7, §1, §8, §9, §2, §3, §4, §5, §10, §6

For assay [9], the system named is human gastric cancer cells BGC-823. Put plainly: MTT growth inhibition, BGC-823 cells. It is filed as cell-based. To be noted: 72 h after treatment, read-out: Drug concentration (IC50) at which 50% cancer cells survived.
Description: as §7, §1, §8, §9, §2, §3, §4, §5, §10, §6

Assay [10] concerns human lung cancer cells A549. Put plainly: MTT growth inhibition, A549 cells. Format: cell-based. To be noted: 72 h after treatment, read-out: Drug concentration (IC50) at which 50% cancer cells survived.
Description: as §7, §1, §8, §9, §2, §3, §4, §5, §10, §6

Assay [11] relates to human chronic leukemia cells K562. Kind of assay: MTT growth inhibition, K562 cells. It is filed as cell-based. To be noted: 72 h after treatment, read-out: Drug concentration (IC50) at which 50% cancer cells survived.
Description: as §7, §1, §8, §9, §2, §3, §4, §5, §10, §6

Assay [12] deals with human liver cancer cells SMMC7721. Kind of assay: MTT growth inhibition, SMMC7721 cells. Conditions: SMMC-7721, S-7721 (SMMC7721), 72 h after treatment, read-out: Drug concentration (IC50) at which 50% cancer cells survived. Format: cell-based.
Description: as §7, §1, §8, §9, §2, §3, §4, §5, §10, §6

Assay [13] deals with human pancreatic cancer cells PANC-1. Kind of assay: MTT growth inhibition, PANC-1 cells. It is filed as cell-based. Conditions: 72 h after treatment, read-out: Drug concentration (IC50) at which 50% cancer cells survived.
Description: as §7, §1, §8, §9, §2, §3, §4, §5, §10, §6

In assay [14] the test system is human oral epidermoid cancer cells KBV200. Kind of assay: MTT growth inhibition, KBV200 cells. Format: cell-based. Conditions: 72 h after treatment, read-out: Drug concentration (IC50) at which 50% cancer cells survived.
Description: as §7, §1, §8, §9, §2, §3, §4, §5, §10, §6

Assay [15] has as its system human pancreatic cancer cells BxPC3. Kind of assay: MTT growth inhibition, BxPc3 cells. It is filed as cell-based. To be noted: 72 h after treatment, read-out: Drug concentration (IC50) at which 50% cancer cells survived.
Description: as §7, §1, §8, §9, §2, §3, §4, §5, §10, §6

A further assay has as its system human neuroma cells D54. Put plainly: MTT growth inhibition, D54 cells. Conditions: 72 h after treatment, read-out: Drug concentration (IC50) at which 50% cancer cells survived. Format: cell-based.
Description: as §7, §1, §8, §9, §2, §3, §4, §5, §10, §6

Assay [16] relates to human brain tumor cells Daoy. Put plainly: MTT growth inhibition, Daoy cells. It is filed as cell-based. Conditions: 72 h after treatment, read-out: Drug concentration (IC50) at which 50% cancer cells survived.
Description: as §7, §1, §8, §9, §2, §3, §4, §5, §10, §6

The test system of assay [17] is human lung cancer cells A549 xenograft. Kind of assay: In-vivo growth of A549 xenografts in nude mice. Also noted: species or system BALB/c nude mice. Conditions: positive controls: cisplatin 1.5 mg/kg/day, cyclophosphamide 60 mg/kg/2 day, endostar 8 mg/kg. How it is done: (§11) RPMI1640 and DMEM culture solutions: Hyclone Company; inactivated fetal bovine serum: Hyclone Company, preserved at −20° C.; trypsin: Amersco Company; and 0.4% trypan blue: Sigma Company;
(§12) (3) Observation of growth of tumors in nude mice: the activities (including food intake, traits of urine and stool, mental state and the like) of the nude mice and the tumor growth time and growth situation of the transplanted tumors were observed every day, the body weight and the size of the tumors were measured once every 2-3 days. The long diameter a and the short diameter b (mm) of each tumor were measured by a vernier caliper to calculate the volume, wherein the volume V=π1/2·ab^2 (mm^3);
(§13) (4) sacrifice of animals: the mice were anesthetized and photoed after treatment experiments; the nude mice were sacrificed by breaking neck, the tumor tissues were stripped under sterile conditions and the weight of the tumors was weighed; and the effects of the drugs on pathology and toxicity of the various organs and tissues were detected.

For assay [18], the system named is human breast cancer cells MDA-MB231 xenograft. Put plainly: In-vivo growth of MDA-MB231 xenografts in nude mice. Set-up: species or system BALB/c nude mice. To be noted: MB-231 xenograft; positive controls: cisplatin 1.5 mg/kg/day, cyclophosphamide 60 mg/kg/2 day, endostar 8 mg/kg. As for the experimental part: as §11, §12, §13
In assay [19] the test system is human cervical cancer cells Hela xenograft. Put plainly: In-vivo growth of Hela xenografts in nude mice. To be noted: positive controls: cisplatin 1.5 mg/kg/day, endostar 8 mg/kg. Set-up: species or system BALB/c nude mice. As for the experimental part: as §11, §12, §13
Assay [20] relates to human breast cancer cells MCF-7 xenograft. Kind of assay: In-vivo growth of MCF-7 xenografts in nude mice. Set-up: species or system BALB/c nude mice. To be noted: positive controls: cisplatin 1.5 mg/kg/day, cyclophosphamide 60 mg/kg/2 day, endostar 8 mg/kg. How it is done: as §11, §12, §13
Assay [21] deals with human liver cancer cells SMMC7721 xenograft. Kind of assay: In-vivo growth of SMMC7721 xenografts in nude mice. Set-up: species or system BALB/c nude mice. To be noted: S-7721 xenograft; positive controls: cisplatin 1.5 mg/kg/day, cyclophosphamide 60 mg/kg/2 day, endostar 8 mg/kg. As for the experimental part:
as §11, §12, §13

Assay [22] relates to human pancreatic cancer cells PANC-1 xenograft. Kind of assay: In-vivo growth of PANC-1 xenografts in nude mice. Also noted: species or system BALB/c nude mice. Conditions: positive controls: cisplatin 1.5 mg/kg/day, endostar 8 mg/kg. As for the experimental part:
as §11, §12, §13

Read-outs that look alike come from different tables or passages of the source.

Take `N.N.O=C([O-])C1(C(=O)[O-])CCC1.[Pt+2]` [Carboplatin, reference compound]: the IC50 in assay [1] (72 h after treatment) came to 58 ± 30 µM.
Consider `O=C(O)c1cc2cc(Br)ccc2oc1=O` [Compound IIId, 6-bromocoumarin-3-carboxylic acid], for which the IC50 is 700 µM in assay [2]; 600 µM in assay [3] (Homo sapiens); 400 µM in [4] (Mus musculus, Lewis lung carcinoma); 500 µM in assay [5]; 400 µM in assay [6]; 500 µM in assay [1] (Homo sapiens, U-937, 72 h after treatment). The IC50 was 600 µM in the assay on mouse melanoma cells B16 (Mus musculus); 500 µM in [7]; 500 µM in assay [8]; 700 ± 50 µM in assay [9]; 600 µM in assay [10]; 600 µM in [11]. The IC50 in [12] and in assay [13] was 500 µM in each case.
`COc1cccc2c1C(=O)c1c(O)c3c(c(O)c1C2=O)C[C@@](O)(C(C)=O)C[C@@H]3O[C@H]1C[C@H](N)[C@H](O)[C@H](C)O1` [Daunorubicin, reference compound]: the IC50 in assay [2] stood at 63 µM; in [6], 58 µM; in assay [7] it was 51 µM; in assay [8] it was 63 µM; in [9], 68 µM; in assay [14], 1000 nM. Besides, in assay [13], the IC50 was 55 µM.
Consider `O=C1OC(=O)[C@H]2[C@@H]1[C@@H]1CC[C@H]2O1` [Norcantharidin, reference compound], for which the IC50 is 60 µM in assay [15] and 15 µM in assay [4].
In the case of `N.N.[Cl][Pt][Cl]` [Cisplatin, reference compound], the IC50 turned out to be 66 µM in [3], 21 µM in the assay on human neuroma cells D54, 1600 nM in assay [16] and 67 ± 30 µM in the assay with mouse melanoma cells B16. Moreover, the “Curative effect (inhibition rate %) of tumor weight” value in assay [17] was “A/46.7% ± 6.5*;”; in assay [18], “A/61.3% ± 6.7*;”; in assay [19], “A.36.6% ± 7.5”; in assay [20], “A.39.9% ± 7.8;”; in assay [21] it was “A.69.6% ± 7.9;”; in assay [22] it was “A/25.3% ± 7.7”.

(Values after patent publication US9518038B2, “Condensation product of theanine derivative and carboxylic acid coumarin derivative, its intermediate, preparation method and use thereof” (SHANDONG YINGDONG YINGHAO BIOTECHNOLOGY, INC., priority 2012, dated 2016).)
